Patent US12371454B2, “Cyclic peptide compound having Kras inhibitory action” (priority 2019, dated 2025)
Starred links: 1 amine or outer side, 2 acyl side, 3 side chain; linkers in the order of their positions; H or OH if unused. Positions of bridges follow the written chain, without caps; N, C: chain ends. Non-standard residues stand in square brackets, D forms with d. Residues, ends and D or L forms follow the SMILES beside them. *: point of attachment. hPhe(3-Cl-4-CF3) = N[C@@H](CCc1ccc(C(F)(F)F)c(Cl)c1)C(=O)O; NMePhe(4-CF3) = CN[C@@H](Cc1ccc(C(F)(F)F)cc1)C(=O)O; hPhe(4-CF3) = N[C@@H](CCc1ccc(C(F)(F)F)cc1)C(=O)O; X46 = COc1cncc(C[C@@H](C(=O)[*:2])N(C)[*:1])c1; NMePhe(4-Cl) = CN[C@@H](Cc1ccc(Cl)cc1)C(=O)O; NMePhe(2-CN) = CN[C@@H](Cc1ccccc1C#N)C(=O)O; NMedβ3hAla = C[C@H](CC(=O)[*:2])N(C)[*:1]; Phe(3-Cl) = N[C@@H](Cc1cccc(Cl)c1)C(=O)O; NMeGly(cPent) = CN[C@H](C(=O)O)C1CCCC1; Phe(3-I) = N[C@@H](Cc1cccc(I)c1)C(=O)O; Pro(4,4-F2) = O=C(O)[C@@H]1CC(F)(F)CN1; NMeCha = CN[C@@H](CC1CCCCC1)C(=O)O; Azetidine(3,3-F2) = FC1(F)CN(*)C1; NMeChg = CN[C@H](C(=O)O)C1CCCCC1; NMeF = CN[C@@H](Cc1ccccc1)C(=O)O; dNMeF = CN[C@H](Cc1ccccc1)C(=O)O; NMeβAla = CN(CCC(=O)[*:2])[*:1]; NMeD = CN[C@@H](CC(=O)O)C(=O)O; NMeL = CN[C@@H](CC(C)C)C(=O)O; NMeV = CN[C@H](C(=O)O)C(C)C; d(β3hA) = C[C@@H](N)CC(=O)O; dPip = O=C(O)[C@H]1CCCCN1; NMeA = CN[C@@H](C)C(=O)O; NMeAib = CNC(C)(C)C(=O)O; Nle = CCCC[C@H](N)C(=O)O; Piperidide = C1CCN(*)CC1; Pyrrolidide = C1CCN(*)C1; Ac5c = NC1(C(=O)O)CCCC1; Aze = O=C(O)[C@@H]1CCN1; Ac4c = NC1(C(=O)O)CCC1; Sar = CNCC(=O)O

Molecular target: T1, Kras and SOS1 (biotin-tagged human Kras loaded with GDP, His-tagged human SOS1) (Homo sapiens, UniProt P01116, G12D)
T1 construct: made in house; host or cells: E. coli (stated for Kras only)
Assay: Protein-protein interaction inhibition between Kras and SOS1 (KrasGl2D-SOS PPI) using AlphaScreen
Type: binding
Settings: AlphaScreen; biotin-tagged human Kras loaded with GDP, His-tagged human SOS1; read-out: KRAS G12D-SOS PPI IC50
How it was run: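 Donor beads (nickel) hold His-SOS1; acceptor beads (streptavidin) hold biotin-Kras bound to GDP. Signal measured at 520-620 nm following 680 nm excitation.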

T1 sequence (P01116 1-188 isoform P01116-2 G12D): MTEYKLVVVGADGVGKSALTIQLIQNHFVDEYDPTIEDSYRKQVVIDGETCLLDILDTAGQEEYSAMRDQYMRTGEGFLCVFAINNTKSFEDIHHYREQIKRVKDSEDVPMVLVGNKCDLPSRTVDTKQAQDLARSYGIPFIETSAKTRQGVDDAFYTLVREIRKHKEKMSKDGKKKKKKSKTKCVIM

SMILES	IC50
CC[C@H](C)[C@@H]1NC(=O)[C@H](C)N(C)C(=O)C[C@@H](C)NC(=O)[C@H](C(C)C)N(C)C(=O)C2(CCCC2)NC(=O)[C@@H]2CCCN2C(=O)[C@H](CCc2ccc(C(F)(F)F)c(Cl)c2)NC(=O)[C@H]2CCCCN2C(=O)[C@H](CC2CCCCC2)N(C)C(=O)CN(C)C(=O)CN(C)C1=O [Compound 746] (cyclo([Ac5c][NMeV][d(β3hA)][NMeA]I[Sar][Sar][NMeCha][dPip][hPhe(3-Cl-4-CF3)]P))	0.13 µM
CC[C@H](C)[C@@H]1NC(=O)[C@H](CC(C)C)N(C)C(=O)C[C@@H](C)N(C)C(=O)[C@H](C2CCCCC2)N(C)C(=O)C2(CCC2)NC(=O)[C@@H]2CC(F)(F)CN2C(=O)[C@H](CCc2ccc(C(F)(F)F)c(Cl)c2)NC(=O)CN(C)C(=O)[C@H](Cc2ccc(C(F)(F)F)cc2)N(C)C(=O)CN(C)C(=O)CN(C)C1=O [Compound 750] (cyclo([Ac4c][NMeChg][NMedβ3hAla][NMeL]I[Sar][Sar][NMePhe(4-CF3)][Sar][hPhe(3-Cl-4-CF3)][Pro(4,4-F2)]))	0.028 µM
CC[C@H](C)[C@@H]1NC(=O)[C@H](C)N(C)C(=O)C[C@@H](C)NC(=O)[C@H](CC(C)C)N(C)C(=O)[C@H](Cc2ccccc2)N(C)C(=O)[C@@H]2CCCN2C(=O)[C@H](CCc2ccc(C(F)(F)F)cc2)NC(=O)CN(C)C(=O)[C@H](Cc2ccc(Cl)cc2)N(C)C(=O)CN(C)C(=O)CN(C)C1=O [Compound 751] (cyclo(I[Sar][Sar][NMePhe(4-Cl)][Sar][hPhe(4-CF3)]P[NMeF][NMeL][d(β3hA)][NMeA]))	0.082 µM
CC[C@H](C)[C@@H]1NC(=O)[C@H](C)N(C)C(=O)C[C@@H](C(=O)N2CCCCC2)NC(=O)[C@H](C(C)C)N(C)C(=O)[C@H](Cc2ccccc2)N(C)C(=O)[C@H](CC(C)C)N(C)C(=O)[C@H](CCc2ccc(C(F)(F)F)cc2)NC(=O)CN(C)C(=O)[C@H](Cc2ccc(Cl)cc2)N(C)C(=O)CN(C)C(=O)CN(C)C1=O [Compound 752] ([NMeA]I[Sar][Sar][NMePhe(4-Cl)][Sar][hPhe(4-CF3)][NMeL][NMeF][NMeV]D-Piperidide; lactam N-11)	0.2 µM
CC[C@H](C)[C@@H]1NC(=O)CCN(C)C(=O)[C@@H](Cc2ccccc2)N(C)C(=O)[C@H](C2CCCC2)N(C)C(=O)C2(CCCC2)NC(=O)[C@@H]2CCCN2C(=O)[C@H](CCc2ccc(C(F)(F)F)c(Cl)c2)NC(=O)CN(C)C(=O)[C@H](CC2CCCCC2)N(C)C(=O)CN(C)C(=O)CN(C)C1=O [Compound 753] (cyclo([Ac5c][NMeGly(cPent)][dNMeF][NMeβAla]I[Sar][Sar][NMeCha][Sar][hPhe(3-Cl-4-CF3)]P))	0.035 µM
CC[C@H](C)[C@@H]1NC(=O)[C@H](C)N(C)C(=O)C[C@@H](C(=O)N2CCCC2)NC(=O)[C@H](CC(C)C)N(C)C(=O)[C@H](Cc2ccccc2)N(C)C(=O)[C@H](CC(C)C)NC(=O)[C@H](Cc2cccc(Cl)c2)NC(=O)CN(C)C(=O)[C@H](Cc2ccc(Cl)cc2)N(C)C(=O)CN(C)C(=O)CN(C)C1=O [Compound 758] ([NMeA]I[Sar][Sar][NMePhe(4-Cl)][Sar][Phe(3-Cl)]L[NMeF][NMeL]D-Pyrrolidide; lactam N-11)	0.14 µM
CC[C@H](C)[C@@H]1NC(=O)[C@H](CC(C)C)N(C)C(=O)C[C@@H](C(=O)N(C)C)N(C)C(=O)[C@H](C2CCCC2)N(C)C(=O)C2(CCCC2)NC(=O)[C@H](CC(=O)N2CC(F)(F)C2)N(C)C(=O)[C@H](CCc2ccc(C(F)(F)F)c(Cl)c2)NC(=O)CN(C)C(=O)[C@H](CC2CCCCC2)N(C)C(=O)[C@@H]2CCN2C(=O)[C@H](C)N(C)C1=O [Compound 761] ([NMeL]I[NMeA][Aze][NMeCha][Sar][hPhe(3-Cl-4-CF3)][NMeD](Azetidine(3,3-F2))[Ac5c][NMeGly(cPent)][NMeD]-NMe2; lactam N-11)	0.00057 µM
CCCC[C@@H]1NC(=O)C(C)(C)N(C)C(=O)[C@H](CCCC)NC(=O)[C@H](Cc2cccc(I)c2)NC(=O)CN(C)C(=O)[C@H](Cc2ccc(Cl)cc2)N(C)C(=O)CN(C)C(=O)CN(C)C(=O)[C@H]([C@@H](C)CC)NC(=O)[C@H](CC(C)C)N(C)C(=O)C[C@@H](C(=O)N2CCCCC2)N(C)C1=O [Compound 765] ([NMeL]I[Sar][Sar][NMePhe(4-Cl)][Sar][Phe(3-I)][Nle][NMeAib][Nle][NMeD]-Piperidide; lactam N-11)	0.05 µM
CC[C@H](C)[C@@H]1NC(=O)[C@H](CC(C)C)N(C)C(=O)C[C@@H](C)NC(=O)[C@H](C(C)C)N(C)C(=O)C2(CCCC2)NC(=O)[C@@H]2CCCN2C(=O)[C@H](CCc2ccc(C(F)(F)F)c(Cl)c2)NC(=O)CN(C)C(=O)[C@H](Cc2ccccc2C#N)N(C)C(=O)CN(C)C(=O)CN(C)C1=O [Compound 767] (cyclo([Ac5c][NMeV][d(β3hA)][NMeL]I[Sar][Sar][NMePhe(2-CN)][Sar][hPhe(3-Cl-4-CF3)]P))	0.024 µM
CC[C@H](C)[C@@H]1NC(=O)[C@H](CC(C)C)N(C)C(=O)C[C@@H](C(=O)N2CCCCC2)N(C)C(=O)[C@H](C2CCCCC2)N(C)C(=O)C2(CCCC2)NC(=O)[C@H](Cc2cncc(OC)c2)N(C)C(=O)[C@H](CCc2ccc(C(F)(F)F)c(Cl)c2)NC(=O)CN(C)C(=O)[C@H](CC2CCCCC2)N(C)C(=O)[C@@H]2CCN2C(=O)CN(C)C1=O [Compound 770] ([NMeL]I[Sar][Aze][NMeCha][Sar][hPhe(3-Cl-4-CF3)][X46][Ac5c][NMeChg][NMeD]-Piperidide; lactam N-11)	0.02 µM
